{"source": "PubChem BioAssay AID328", "about": "(DTP/NCI, 2004)", "system": "BDF1 mice, P388 leukemia ip, median survival T/C", "assay": "NCI In Vivo Anticancer Drug Screen. Data for tumor model P388 Leukemia (intraperitoneal) in B6D2F1 (BDF1) mice", "conditions": "endpoint: median survival time, higher = longer survival", "outline": "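Each value expresses how treatment altered survival: treated-mouse outcome over vehicle-mouse outcome, both groups bearing the transplanted tumour.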", "key": {"[1]": {"conditions": "dose: 100.0 mg/kg/injection, schedule: Q04DX003 (ip), vehicle: saline"}, "[2]": {"conditions": "dose: 200.0 mg/kg/injection, schedule: Q04DX003 (ip), vehicle: saline"}, "[3]": {"conditions": "dose: 400.0 mg/kg/injection, schedule: Q04DX003 (ip), vehicle: saline"}, "[4]": {"conditions": "dose: 50.0 mg/kg/injection, schedule: Q01DX009 (ip), vehicle: saline with Tween-80"}, "[5]": {"conditions": "dose: 100.0 mg/kg/injection, schedule: Q01DX009 (ip), vehicle: saline with Tween-80"}, "[6]": {"conditions": "dose: 200.0 mg/kg/injection, schedule: Q01DX009 (ip), vehicle: saline with Tween-80"}}, "note": "Inconclusive results and toxic doses are left out."}
{"smiles": "CCOC(=O)Nc1cc(NC(c2ccccc2)c2ccccc2)c2[nH]cnc2n1", "values": [{"measurement": "T/C", "setting": "dose: 15.0 mg/kg/injection, schedule: Q04DX003 (ip), vehicle: saline with Tween-80", "value": "87 % of control"}, {"measurement": "T/C", "setting": "dose: 60.0 mg/kg/injection, schedule: Q04DX003 (ip), vehicle: saline with Tween-80", "value": "108 % of control"}]}
{"smiles": "CN=C(NN(C)C)c1ccc(NC(=O)c2ccc(C(=O)Nc3ccc(C(=NC)NN(C)C)cc3)cc2)cc1", "values": [{"measurement": "T/C", "setting": "dose: 4.0 mg/kg/injection, schedule: Q01DX009 (ip), vehicle: saline with Tween-80", "value": "100 % of control"}, {"measurement": "T/C", "setting": "dose: 9.0 mg/kg/injection, schedule: Q01DX009 (ip), vehicle: saline with Tween-80", "value": "150 % of control"}]}
{"smiles": "O=C(N=c1cc(-c2ccc(Cl)cc2)ss1)C(Cc1ccccc1)N1C(=O)c2ccccc2C1=O", "note": "(stereo unspecified)", "values": [{"measurement": "T/C", "setting": "dose: 6.25 mg/kg/injection, schedule: Q01DX009 (ip), vehicle: water", "value": "101 % of control"}, {"measurement": "T/C", "setting": "dose: 6.25 mg/kg/injection, schedule: Q04DX003 (ip), vehicle: water", "value": "110 % of control"}, {"measurement": "T/C", "setting": "dose: 12.5 mg/kg/injection, schedule: Q01DX009 (ip), vehicle: water", "value": "104 % of control"}, {"measurement": "T/C", "setting": "dose: 12.5 mg/kg/injection, schedule: Q04DX003 (ip), vehicle: water", "value": "100 % of control"}, {"measurement": "T/C", "setting": "dose: 25.0 mg/kg/injection, schedule: Q01DX009 (ip), vehicle: water", "value": "108 % of control"}, {"measurement": "T/C", "setting": "dose: 25.0 mg/kg/injection, schedule: Q04DX003 (ip), vehicle: water", "value": "110 % of control"}, {"measurement": "T/C", "setting": "dose: 50.0 mg/kg/injection, schedule: Q01DX009 (ip), vehicle: water", "value": "104 % of control"}, {"measurement": "T/C", "setting": "dose: 50.0 mg/kg/injection, schedule: Q04DX003 (ip), vehicle: water", "value": "104 % of control"}, {"measurement": "T/C", "setting": "dose: 100.0 mg/kg/injection, schedule: Q01DX009 (ip), vehicle: water", "value": "108 % of control"}, {"measurement": "T/C", "setting": "dose: 100.0 mg/kg/injection, schedule: Q04DX003 (ip), vehicle: water", "value": "107 % of control"}, {"measurement": "T/C", "setting": "dose: 200.0 mg/kg/injection, schedule: Q01DX009 (ip), vehicle: water", "value": "108 % of control"}]}
{"smiles": "CC(=O)CC(=O)NCCNCCNC(=O)CC(C)=O", "values": [{"measurement": "T/C", "setting": "[1]", "value": "100 % of control"}, {"measurement": "T/C", "setting": "[2]", "value": "114 % of control"}, {"measurement": "T/C", "setting": "[3]", "value": "100 % of control"}]}
{"smiles": "CC(C)=CCc1c(O)ccc(C(=O)/C=C/c2ccccc2)c1O", "values": [{"measurement": "T/C", "setting": "dose: 3.12 mg/kg/injection, schedule: Q01DX009 (ip), vehicle: Klucel (hydroxypropylcellulose) (HPC)", "value": "102 % of control"}, {"measurement": "T/C", "setting": "dose: 6.25 mg/kg/injection, schedule: Q01DX009 (ip), vehicle: Klucel (hydroxypropylcellulose) (HPC)", "value": "106 % of control"}, {"measurement": "T/C", "setting": "dose: 12.5 mg/kg/injection, schedule: Q01DX009 (ip), vehicle: Klucel (hydroxypropylcellulose) (HPC)", "value": "116 % of control"}, {"measurement": "T/C", "setting": "dose: 25.0 mg/kg/injection, schedule: Q01DX009 (ip), vehicle: Klucel (hydroxypropylcellulose) (HPC)", "value": "100 % of control"}, {"measurement": "T/C", "setting": "dose: 50.0 mg/kg/injection, schedule: Q01DX009 (ip), vehicle: Klucel (hydroxypropylcellulose) (HPC)", "value": "90 % of control"}, {"measurement": "T/C", "setting": "dose: 100.0 mg/kg/injection, schedule: Q01DX009 (ip), vehicle: Klucel (hydroxypropylcellulose) (HPC)", "value": "90 % of control"}]}
{"smiles": "Cc1ccnc(NS(=O)(=O)c2ccc(N=Cc3ccc(N(C)C)cc3)cc2)n1", "values": [{"measurement": "T/C", "setting": "[4]", "value": "90 % of control"}, {"measurement": "T/C", "setting": "[5]", "value": "93 % of control"}, {"measurement": "T/C", "setting": "[6]", "value": "90 % of control"}]}
{"smiles": "CCOc1ccc(Br)cc1/C=C1\\N=C(c2ccccc2)OC1=O", "values": [{"measurement": "T/C", "setting": "dose: 100.0 mg/kg/injection, schedule: Q04DX003 (ip), vehicle: Klucel (hydroxypropylcellulose) (HPC)", "value": "95 % of control"}, {"measurement": "T/C", "setting": "dose: 200.0 mg/kg/injection, schedule: Q04DX003 (ip), vehicle: Klucel (hydroxypropylcellulose) (HPC)", "value": "100 % of control"}, {"measurement": "T/C", "setting": "dose: 400.0 mg/kg/injection, schedule: Q04DX003 (ip), vehicle: Klucel (hydroxypropylcellulose) (HPC)", "value": "95 % of control"}]}
{"smiles": "CN(C)c1cc(F)c(C=O)cc1[N+](=O)[O-]", "values": [{"measurement": "T/C", "setting": "[1]", "value": "95 % of control"}, {"measurement": "T/C", "setting": "[2]", "value": "100 % of control"}, {"measurement": "T/C", "setting": "[3]", "value": "104 % of control"}]}
{"smiles": "O=C(CCl)Oc1ccc(-c2ccccc2)cc1Br", "values": [{"measurement": "T/C", "setting": "[4]", "value": "105 % of control"}, {"measurement": "T/C", "setting": "[5]", "value": "102 % of control"}, {"measurement": "T/C", "setting": "[6]", "value": "103 % of control"}, {"measurement": "T/C", "setting": "dose: 400.0 mg/kg/injection, schedule: Q01DX009 (ip), vehicle: saline with Tween-80", "value": "88 % of control"}]}
{"smiles": "CCCCCC(C[N+](C)(C)C)C(=O)/C=C/c1ccc(Cl)cc1", "note": "(stereo unspecified)", "values": [{"measurement": "T/C", "setting": "dose: 6.25 mg/kg/injection, schedule: Q01DX001 (ip), vehicle: Klucel (hydroxypropylcellulose) (HPC)", "value": "113 % of control"}, {"measurement": "T/C", "setting": "dose: 12.5 mg/kg/injection, schedule: Q01DX001 (ip), vehicle: Klucel (hydroxypropylcellulose) (HPC)", "value": "100 % of control"}, {"measurement": "T/C", "setting": "dose: 25.0 mg/kg/injection, schedule: Q01DX001 (ip), vehicle: Klucel (hydroxypropylcellulose) (HPC)", "value": "101 % of control"}, {"measurement": "T/C", "setting": "dose: 50.0 mg/kg/injection, schedule: Q01DX001 (ip), vehicle: Klucel (hydroxypropylcellulose) (HPC)", "value": "88 % of control"}]}
{"smiles": "O=Cc1cc(O)ccc1[N+](=O)[O-]", "values": [{"measurement": "T/C", "setting": "[4]", "value": "95 % of control"}, {"measurement": "T/C", "setting": "[5]", "value": "104 % of control"}, {"measurement": "T/C", "setting": "dose: 100.0 mg/kg/injection, schedule: Q04DX003 (ip), vehicle: saline with Tween-80", "value": "104 % of control"}, {"measurement": "T/C", "setting": "[6]", "value": "100 % of control"}, {"measurement": "T/C", "setting": "dose: 200.0 mg/kg/injection, schedule: Q04DX003 (ip), vehicle: saline with Tween-80", "value": "90 % of control"}]}
